Ki data for 23 compounds are collected here from ChEMBL document CHEMBL4017449, “Inhibition of Malassezia globosa carbonic anhydrase with phenols” (Bioorg Med Chem, 2017).

Each structure is given as a SMILES string. Bounds are passed on as bounds.

The term Ki denotes a dissociation constant, usually derived from enzyme kinetics or from competition with a known ligand.

A short description of assay [1]: Inhibition of Malassezia globosa recombinant beta-carbonic anhydrase preincubated for 15 mins prior to testing measured for 10 to 100 secs by phenol red-based stopped-flow CO2 hydration assay.
Another assay has as its target Carbonic anhydrase 2 (Homo sapiens, UniProt P00918). In words: Inhibition of human recombinant carbonic anhydrase 2 preincubated for 15 mins prior to testing measured for 10 to 100 secs by phenol red-based stopped-flow CO2 hydration assay.
A further assay has as its target Carbonic anhydrase 1 (Homo sapiens, UniProt P00915). In words: Inhibition of human recombinant carbonic anhydrase 1 preincubated for 15 mins prior to testing measured for 10 to 100 secs by phenol red-based stopped-flow CO2 hydration assay.

Carbonic anhydrase 1, sequence (P00915 whole entry): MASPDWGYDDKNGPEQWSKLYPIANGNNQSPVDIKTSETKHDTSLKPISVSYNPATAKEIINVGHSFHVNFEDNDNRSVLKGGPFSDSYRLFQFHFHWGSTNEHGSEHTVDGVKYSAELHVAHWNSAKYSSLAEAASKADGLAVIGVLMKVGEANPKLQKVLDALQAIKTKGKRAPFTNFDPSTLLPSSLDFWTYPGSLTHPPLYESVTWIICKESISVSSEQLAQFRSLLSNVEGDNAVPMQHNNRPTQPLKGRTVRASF

For `Oc1cc(F)cc(F)c1`, in assay [1], the Ki was determined as 8.8 µM.

Take `Nc1cccc(O)c1` [3-AMINOPHENOL]: in assay [1], the Ki is 3.9 µM. On the same count and under the same terms, in the case of `O=C(O)/C=C/c1ccc(O)cc1` [COUMARIC ACID] it was 3.3 µM; in that of `Oc1ccccc1O` [CATECHOL], 7 µM; in that of `O=C(O)/C=C/c1ccc(O)c(O)c1` [CAFFEIC ACID], 0.6 µM. As to `CC(=O)Nc1nnc(S(N)(=O)=O)s1` [ACETAZOLAMIDE], in assay [1], the Ki was 74 µM.

In the case of `O=C(O)c1ccc(O)cc1` [PARABEN], the Ki in assay [1] was 4.9 µM. On the same count and under the same terms, then `O=C(O)c1ccccc1O` [SALICYLIC ACID], with 6.6 µM; and `Oc1cc(F)ccc1F`, with 29.7 µM; and `Nc1ccc(O)cc1` [4-AMINOPHENOL], with 32 µM. Still for that read-out and setting: then `O=C(O)c1cc(O)ccc1O` [GENTISIC ACID], with 4.5 µM.

As for `N#Cc1ccc(O)cc1` [4-CYANOPHENOL], in assay [1], the inhibition constant (Ki) is 0.7 µM. The same measure, in the same setting: in the case of `CC(=O)Nc1ccc(O)cc1` [ACETAMINOPHEN] it was 2.5 µM. The same measure, in the same setting: then `Oc1cccc(O)c1` [RESORCINOL], with 6.1 µM; and `Nc1cc(O)ccc1Cl`, with 44.9 µM. Turning to `Nc1ccc(O)c(Cl)c1`, the figures for the inhibitory constant (Ki) (in assay [1]; at Carbonic anhydrase 2; at Carbonic anhydrase 1) were above 100 µM, 57.5 µM and 57.8 µM, respectively. Turning to `OCc1ccc(O)cc1` [PARAHYDROXYBENZYL ALCOHOL], the Ki in assay [1] is 6.1 µM. Consider `O=C(O)c1ccc(O)c(O)c1` [PROTOCATECHUIC ACID], for which, in assay [1], the Ki turned out to be 6.5 µM. On the same count and under the same terms, in the case of `Oc1ccc(O)cc1` [HYDROQUINONE] it was 6.3 µM. The same measure, in the same setting: in the case of `Oc1ccccc1` [PHENOL] it was 65 µM. As for `Oc1ccc(O)c(O)c1`, the Ki was 7.4 µM in assay [1], above 100 µM at Carbonic anhydrase 2 and above 100 µM at Carbonic anhydrase 1. In the case of `O=C(O)c1c(O)cccc1O`, in assay [1], the inhibition constant (Ki) came out at 5.9 µM. Regarding `Oc1c(F)cc(F)cc1F`, the Ki in assay [1] is 36.4 µM; at Carbonic anhydrase 2, above 100 µM; on Carbonic anhydrase 1 it was above 100 µM.
